Measured values taken from patent publication US20130121994A1, “TRIAZOLOPYRIDINE DERIVATIVES” (BAYER INTELLECTUAL PROPERTY GMBH, priority 2009, published 2013).

Target: T1, human kinase Mps-1 (Homo sapiens, UniProt P33981)
T1 construct: N-terminally GST-tagged human full length recombinant Mps-1 kinase; GST (N); purchased Invitrogen, Karslruhe, Germany PV4071
T1 sequence (P33981 1-857): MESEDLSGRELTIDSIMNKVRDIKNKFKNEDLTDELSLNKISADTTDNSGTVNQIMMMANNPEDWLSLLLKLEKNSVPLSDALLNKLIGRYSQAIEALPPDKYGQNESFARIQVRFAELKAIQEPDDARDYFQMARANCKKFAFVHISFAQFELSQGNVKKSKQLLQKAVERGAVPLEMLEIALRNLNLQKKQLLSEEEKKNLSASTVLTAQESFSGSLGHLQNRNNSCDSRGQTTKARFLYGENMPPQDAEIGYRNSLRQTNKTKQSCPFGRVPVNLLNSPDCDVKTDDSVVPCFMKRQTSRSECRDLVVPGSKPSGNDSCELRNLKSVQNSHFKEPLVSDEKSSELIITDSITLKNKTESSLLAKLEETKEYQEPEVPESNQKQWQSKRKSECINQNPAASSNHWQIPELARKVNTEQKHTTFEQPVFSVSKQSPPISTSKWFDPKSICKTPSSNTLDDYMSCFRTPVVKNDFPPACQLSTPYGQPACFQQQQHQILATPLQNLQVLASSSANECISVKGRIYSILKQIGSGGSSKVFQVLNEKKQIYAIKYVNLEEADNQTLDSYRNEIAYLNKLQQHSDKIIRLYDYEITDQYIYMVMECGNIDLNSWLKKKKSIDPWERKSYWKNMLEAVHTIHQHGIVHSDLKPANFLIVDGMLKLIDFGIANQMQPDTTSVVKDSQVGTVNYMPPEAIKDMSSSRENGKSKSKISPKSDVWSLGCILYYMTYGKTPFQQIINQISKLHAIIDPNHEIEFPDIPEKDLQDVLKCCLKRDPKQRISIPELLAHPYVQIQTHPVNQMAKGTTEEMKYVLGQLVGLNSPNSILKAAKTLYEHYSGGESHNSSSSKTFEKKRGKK
Test: Mps-1 kinase assay (HTRF)
Type: biochemical

| SMILES | IC50 |
| --- | --- |
| CCNC(=O)c1ccc(Nc2nc3ccc(-c4ccc(C(=O)NCC(F)(F)F)cc4)cn3n2)c(OCC)c1 [Example 11.031, 3-ethoxy-N-ethyl-4-[(6-{4-[(2,2,2-trifluoroethyl)carbamoyl]phenyl}[1,2,4]triazolo [1,5-a]pyridin-2-yl)amino]benzamide] | ≤ 1 nM |
| CCOc1cc(C(=O)NC(C)(C)CO)ccc1Nc1nc2ccc(-c3ccc(C(=O)NCC(C)C)cc3)cn2n1 [Example 11.035, 3-ethoxy-N-(1-hydroxy-2-methylpropan-2-yl)-4-[(6-{4-[(2-methylpropyl)carbamoyl]phenyl}[1,2,4]triazolo [1,5-a]pyridin-2-yl)amino]benzamide] | 1.92 nM |
| CCOc1cc(C(=O)NCC(C)(C)O)ccc1Nc1nc2ccc(-c3ccc(C(=O)NCC(C)C)cc3)cn2n1 [Example 11.036, 3-ethoxy-N-(2-hydroxy-2-methylpropyl)-4-[(6-{4-[(2-methylpropyl)carbamoyl]phenyl}[1,2,4]triazolo [1,5-a]pyridin-2-yl)amino]benzamide] | 2.58 nM |
| O=C(NCCO)c1ccc(Nc2nc3ccc(-c4ccc(C(=O)NCC(F)(F)F)cc4)cn3n2)c(OCC(F)(F)F)c1 [Example 11.037, N-(2-hydroxyethyl)-3-(2,2,2-trifluoroethoxy)-4-[(6-{4-[(2,2,2-trifluoroethyl)carbamoyl]phenyl}[1,2,4]triazolo [1,5-a]pyridin-2-yl)amino]benzamide] | ≤ 1 nM |
| C[C@@H](NC(=O)c1cccc(-c2ccc3nc(Nc4ccccc4C#N)nn3c2)c1)C(F)(F)F [Example 11.040, 3-{2-[(2-cyanophenyl)amino][1,2,4]triazolo[1,5-a]pyridin-6-yl}-N-[(2R)-1,1,1-trifluoropropan-2-yl]benzamide] | 1.27 nM |
| CC(F)(F)CNC(=O)c1cccc(-c2ccc3nc(Nc4ccccc4C#N)nn3c2)c1 [Example 11.041, 3-{2-[(2-cyanophenyl)amino][1,2,4]triazolo[1,5-a]pyridin-6-yl}-N-(2,2-difluoropropyl)benzamide] | 2.54 nM |
| CC(C)(C)CNC(=O)c1cccc(-c2ccc3nc(Nc4ccccc4C#N)nn3c2)c1 [Example 11.042, 3-{2-[(2-cyanophenyl)amino][1,2,4]triazolo[1,5-a]pyridin-6-yl}-N-(2,2-dimethylpropyl)benzamide] | ≤ 1 nM |
| N#Cc1ccccc1Nc1nc2ccc(-c3cccc(C(=O)NCC(F)(F)F)c3)cn2n1 [Example 11.044, 3-{2-[(2-cyanophenyl)amino][1,2,4]triazolo[1,5-a]pyridin-6-yl}-N-(2,2,2-trifluoroethyl)benzamide] | 1.47 nM |
| CC(C)(C)NC(=O)c1cccc(-c2ccc3nc(Nc4ccccc4C#N)nn3c2)c1 [Example 11.045, N-tert-butyl-3-{2-[(2-cyanophenyl)amino][1,2,4]triazolo[1,5-a]pyridin-6-yl}benzamide] | 1.18 nM |
| CC(C)[C@@H](C)NC(=O)c1cccc(-c2ccc3nc(Nc4ccccc4C#N)nn3c2)c1 [Example 11.047, 3-{2-[(2-cyanophenyl)amino][1,2,4]triazolo[1,5-a]pyridin-6-yl}-N-[(2R)-3-methylbutan-2-yl]benzamide] | 4.15 nM |
| CC(C)CNC(=O)c1cccc(-c2ccc3nc(Nc4ccccc4C#N)nn3c2)c1 [Example 11.049, 3-{2-[(2-cyanophenyl)amino][1,2,4]triazolo[1,5-a]pyridin-6-yl}-N-isobutylbenzamide] | 3.39 nM |
| CC(C)[C@H](C)NC(=O)c1cccc(-c2ccc3nc(Nc4ccccc4C#N)nn3c2)c1 [Example 11.051, 3-{2-[(2-cyanophenyl)amino][1,2,4]triazolo[1,5-a]pyridin-6-yl}-N-[(2S)-3-methylbutan-2-yl]benzamide] | 5.68 nM |
| CCCNC(=O)c1cccc(-c2ccc3nc(Nc4ccccc4C#N)nn3c2)c1 [Example 11.052, 3-{2-[(2-cyanophenyl)amino][1,2,4]triazolo[1,5-a]pyridin-6-yl}-N-propylbenzamide] | 6.37 nM |

Further lines, results first:

| IC50 | SMILES |
| --- | --- |
| 7.31 nM | COc1cc(C(=O)NCC(C)(C)O)ccc1Nc1nc2ccc(-c3ccc(C(=O)NCCC(F)(F)F)cc3)cn2n1 [Example 11.025, N-(2-hydroxy-2-methylpropyl)-3-methoxy-4-[(6-{4-[(3,3,3-trifluoropropyl)carbamoyl]phenyl}[1,2,4]tria-zolo[1,5-a]pyridin-2-yl)amino]benzamide] |
| 4.08 nM | COc1cc(C(=O)NC(C)(C)CO)ccc1Nc1nc2ccc(-c3ccc(C(=O)NCC(F)(F)F)c(Cl)c3)cn2n1 [Example 11.026, 2-chloro-4-[2-({4-[(1-hydroxy-2-methylpropan-2-yl)carbamoyl]-2-methoxyphenyl}amino)[1,2,4]triazolo[1,5-a]pyridin-6-yl]-N-(2,2,2-trifluoroethyl)benzamide] |
| 35.8 nM | CCN(CC)C(=O)c1ccc(Nc2nc3ccc(-c4ccc(C(=O)NCC(C)(C)C)cc4)cn3n2)c(OC)c1 [Example 11.027, 4-[(6-{4-[(2,2-dimethylpropyl)carbamoyl]phenyl}[1,2,4]tria-zolo[1,5-a]pyridin-2-yl)amino]-N,N-diethyl-3-methoxybenzamide] |
| ≤ 1 nM | CCOc1cc(C(=O)NCCO)ccc1Nc1nc2ccc(-c3ccc(C(=O)NCC(F)(F)F)cc3)cn2n1 [Example 11.028, 3-ethoxy-N-(2-hydroxyethyl)-4-[(6-{4-[(2,2,2-trifluoroethyl)carbamoyl]phenyl}[1,2,4]triazolo [1,5-a]pyridin-2-yl)amino]benzamide] |
| ≤ 1 nM | CCOc1cc(C(=O)NC(C)(C)CO)ccc1Nc1nc2ccc(-c3ccc(C(=O)NCC(F)(F)F)cc3)cn2n1 [Example 11.029, 3-ethoxy-N-(1-hydroxy-2-methylpropan-2-yl)-4-[(6-{4-[(2,2,2-trifluoroethyl)carbamoyl]phenyl}[1,2,4]triazolo [1,5-a]pyridin-2-yl)amino]benzamide] |
| ≤ 1 nM | CCOc1cc(C(=O)NC(C)(C)C)ccc1Nc1nc2ccc(-c3ccc(C(=O)NCC(F)(F)F)cc3)cn2n1 [Example 11.030, N-tert-butyl-3-ethoxy-4-[(6-{4-[(2,2,2-trifluoroethyl)carbamoyl]phenyl}[1,2,4]triazolo [1,5-a]pyridin-2-yl)amino]benzamide] |
| ≤ 1 nM | CCOc1cc(C(=O)NCC(C)(C)O)ccc1Nc1nc2ccc(-c3ccc(C(=O)NCC(F)(F)F)cc3)cn2n1 [Example 11.032, 3-ethoxy-N-(2-hydroxy-2-methylpropyl)-4-[(6-{4-[(2,2,2-trifluoroethyl)carbamoyl]phenyl}[1,2,4]triazolo [1,5-a]pyridin-2-yl)amino]benzamide] |
| ≤ 1 nM | CCOc1cc(C(=O)N(C)CCO)ccc1Nc1nc2ccc(-c3ccc(C(=O)NCC(F)(F)F)cc3)cn2n1 [Example 11.033, 3-ethoxy-N-(2-hydroxyethyl)-N-methyl-4-[(6-{4-[(2,2,2-trifluoroethyl)carbamoyl]phenyl}[1,2,4]triazolo [1,5-a]pyridin-2-yl)amino]benzamide] |
| 1.38 nM | CCOc1cc(C(=O)NCC(C)(C)O)ccc1Nc1nc2ccc(-c3ccc(C(=O)NCCC(F)(F)F)cc3)cn2n1 [Example 11.034, 3-ethoxy-N-(2-hydroxy-2-methylpropyl)-4-[(6-{4-[(3,3,3-trifluoropropyl)carbamoyl]phenyl}[1,2,4]tria-zolo[1,5-a]pyridin-2-yl)amino]benzamide] |
| 10.5 nM | CCN(CC)C(=O)c1ccc(Nc2nc3ccc(-c4ccc(C(=O)NCC(F)(F)F)cc4)cn3n2)cc1 [Example 11.038, N,N-diethyl-4-[(6-{4-[(2,2,2-trifluoroethyl)carbamoyl]phenyl}[1,2,4]triazolo [1,5-a]pyridin-2-yl)amino]benzamide] |
| 1.71 nM | C[C@@H](NC(=O)c1cccc(-c2ccc3nc(Nc4ccccc4C#N)nn3c2)c1)C(C)(C)C [Example 11.039, 3-{2-[(2-cyanophenyl)amino][1,2,4]triazolo[1,5-a]pyridin-6-yl}-N-[(2R)-3,3-dimethylbutan-2-yl]benzamide] |
| ≤ 1 nM | N#Cc1ccccc1Nc1nc2ccc(-c3cccc(C(=O)NCC(F)(F)C(F)(F)F)c3)cn2n1 [Example 11.043, 3-{2-[(2-cyanophenyl)amino][1,2,4]triazolo[1,5-a]pyridin-6-yl}-N-(2,2,3,3,3-pentafluoropropyl)benzamide] |
| 3.29 nM | CC(C)(CO)NC(=O)c1cccc(-c2ccc3nc(Nc4ccccc4C#N)nn3c2)c1 [Example 11.046, 3-{2-[(2-cyanophenyl)amino][1,2,4]triazolo[1,5-a]pyridin-6-yl}-N-(1-hydroxy-2-methylpropan-2-yl)benzamide] |
| 3.95 nM | N#Cc1ccccc1Nc1nc2ccc(-c3cccc(C(=O)NCCC(F)(F)F)c3)cn2n1 [Example 11.048, 3-{2-[(2-cyanophenyl)amino][1,2,4]triazolo[1,5-a]pyridin-6-yl}-N-(3,3,3-trifluoropropyl)benzamide] |
| 4.18 nM | N#Cc1ccccc1Nc1nc2ccc(-c3cccc(C(=O)NCC(F)F)c3)cn2n1 [Example 11.050, 3-{2-[(2-cyanophenyl)amino][1,2,4]triazolo[1,5-a]pyridin-6-yl}-N-(2,2-difluoroethyl)benzamide] |
